# How the values were obtained:
# Akt [1] = assay: Insulin-dependent phosphorylation of Akt in HepG2 cells (immunoblot); format: cell-based, human; conditions: 100 nM insulin
# Description: (§1) Human hepG2 cells (ECACC) were cultivated in EMEM medium (Cambrex) with the addition of 10% fetal calf serum. 10^5 cells were seeded in 2 ml medium in 6 well plates and were cultivated at 37° C. in a moist atmosphere with 5% CO2 for 1 to 3 days, before being used for experiments.
# The expression of IGFBP1 (insulin-like growth factor binding protein) is controlled by insulin via the forkhead box transcription factors O1A (FoxO1A) and O3A (FoxO3A). Following insulin stimulation, the protein kinase B/Akt (PKB/Akt) is activated via phosphorylation, based upon the phosphoinositide-3-kinase (PI3K), reaches the nucleus where it phosphorylates the transcription factor O1A (FoxO1A), which leads to a decrease in the gene expression of IGFBP1, for example.
# For human HepG2 cells (ECACC), serum was removed from the medium for 90 minutes, the cells were incubated for another 60 minutes with 5 μM, 10 μM and 15 μM of the compound according to formula (9), 200 nM Wortmannin or DMSO (dimethylsulfoxide) at a corresponding concentration, after which the cells were stimulated for 10 minutes with 100 nM insulin. The cells were then lysed in lysate buffer (20 mM Tris-Cl, pH 7.5, 150 mM NaCl, 1 mM EDTA, 1 mM EGTA, 2.5 mM sodium pyrophosphate, 1 mM β-glycerophosphate, 1 mM sodium vanadate, 1% Triton X-100) and protease inhibitor mix HP (Serva).
# Standardized quantities of protein were separated out using SDS-PAGE, and were transferred to nitrocellulose membranes. For protein identification via immunoblotting, an antibody was used against the phosphorylated protein Akt, pAkt (Thr308) (cell signaling). Visualization was carried out using the Enhanced Chemiluminescence System (Millipore) using a VersaDoc 5000 CCD camera (BioRad), and the intensity of the bands was quantified using the QuantityOne software (BioRad).
# 4E-BP = assay: Expression of insulin-repressed gene 4E-BP in fed Drosophila larvae (real-time PCR); format: in vivo; conditions: 10 mg compound per 1 g brewer's yeast, 3 days
# Description: Three groups of 100 Drosophila larvae received 10 mg of the compound according to formula (9) mixed with 1 g autoclaved and pulverized brewer's yeast (Brewferm), while three control groups of 100 animals each received the uncut brewer's yeast. This food was administered on water-impregnated filters (Macherey-Nagel) for 3 days at 25° C.
# In each case, more than 10 animals of the group were washed thoroughly with water, placed in lysate buffer (NucleoSpin RNA II kit, Macherey & Nagel), and homogenized for 1 minute at maximum speed (Ultra-Turrax T25basic). Total RNA was isolated using the NucleoSpin RNA II Kit (Macherey & Nagel, including DNase I-treatment on the column).
# cDNA was produced from each 500 ng total RNA using the QuantiTect Reverse Transcription Kit (Qiagen), according to the manufacturer's instructions, including DNase I treatment. PCR was performed in batches with a total volume of 25 μl (iQ5 Real Time PCR Detection System, BioRad). The batches contained 1 μl of the cDNA batch, in each case 200 nM and 3′- and 5′-primer (Metabion) 12.5 μl 2×iQ5 SYBR Green Supermix (BioRad).
# The PCR program that was used comprised 40 cycles with the following steps: 15 seconds denaturing at 95° C., 30 seconds annealing at 59° C. and 30 seconds extension at 72° C. Evaluation was carried out using the iQ5 Optical System software (Version 1.1.1442.OCR, BioRad). […]
# Akt [2] = assay: Insulin-stimulated phosphorylation of Akt in Drosophila S2 Schneider cells (Western blot); format: cell-based; conditions: 10 μM compound 2 hours, 10 μg/ml human insulin 15 minutes
# Description: 10^6 Drosophila S2 cells (Schneider, 1972. J. Embryol. Exp. Morphol. 27, 353) were seeded in cell culture medium (PAN company) with 10% fetal calf serum and 1% streptomycin, penicillin (Gibco) in 35 mm cell culture plates (Nunc company) and cultivated for 2 days at 25° C. to 70-80% confluence. After 2 days, 0.5% (v/v) of the medium DMSO was added, and, based upon the experiment, 10 μM of the compound according to formula (9) was added for 2 hours before insulin stimulation. For an insulin stimulation, human insulin (Sigma) was used for 15 minutes at a rate of 10 μg/ml. Once stimulation was complete, the cells were washed with cold PBS, lysed in cold (4° C.) lysate buffer (50 mM Tris-HCl, pH 8.0, 150 mM NaCl, 1.0% Triton X-100, 0.1% SDS, 0.5% sodium deoxycholate, 50 mM NaF, 100 μM sodium orthovanadate, 1 mM phenylmethylsulfonyl fluoride and EDTA-free protease inhibitor (Roche), according to manufacturer's instructions, and used in the Western Blot analysis.
# In each case, 10 μg protein were isolated on a 12% SDS polyacrylamide gel and transferred to 0.22 μm porous nitrocellulose membranes (Amersham). […]
# Visualization was performed by means of the ECL Kit (Enhanced Chemiluminescence, Amersham) using the VersaDoc 5000 Imaging System (BioRad) and the QuantityOne software (BioRad).
# [3] = test system: IGFBP1 (insulin-like growth factor binding protein); assay: Transcription of IGFBP1 in insulin-treated HepG2 liver cells (quantitative PCR); format: cell-based, human
# Description: as §1
# For human HepG2 cells (ECACC), serum was removed from the medium for 24 hours, the cells were incubated for an additional 12 hours with concentrations of 1.5625 μM, 3.125 μM, 6.25 μM, 12.5 μM, 25 μM or 50 μM of the compound according to formula (9) and with 10 nM insulin. Control cells received DMSO in a concentration corresponding to that of the treated cells.
# Total RNA was isolated using the Absolutely RNA Kit (Stratagene), and the cDNA was produced by means of the reverse transcription of 2 μg RNA using the High Capacity cDNA Archive Kit (Applied Biosystems), according to the manufacturer's instructions. Quantitative PCR was performed in 10 μl batches in an iQ5 Cycler (BioRad) by means of the TaqMan Gene Expression Assay (Applied Biosystems) using gene-specific primer (Applied Biosystems), according to the manufacturer's instructions. The data were normalized to the β2-microglobulin expression.
structure (smiles),measurement,setting,value
COc1nc(-c2ccc3c(c2)OCO3)n(-c2ccc(NC(=O)CSc3ccccc3)cc2)n1 [Compound (9)],reduction in the phosphorylation of Akt as compared with phosphorylation following insulin stimulation,"Akt [1]; HepG2 cells, 10 μM compound",50%
same,phosphorylation of Akt as % of the phosphorylation following insulin stimulation,"Akt [1]; HepG2 cells, 15 μM compound",approximately 25%
same,insulin-dependent phosphorylation of Akt,"Akt [1]; HepG2 cells, 5, 10, 15 μM compound, based upon concentration",inhibited
same,expression of insulin-repressed gene 4E-BP,4E-BP,more than four times
same,insulin-stimulated phosphorylation of the protein Akt,Akt [2],decreased by half
same,IGFBP1 expression relative to untreated cells,"[3]; 12.5 μM compound, 10 nM insulin",nearly the value of the untreated cells
same,block of the insulin-dependent inhibition of the transcription of IGFBP1,[3]; 12 hours with compound and 10 nM insulin,nearly completely block

# Source: US20100048594A1, “USE OF CYTOHESIN INHIBITORS FOR CHEMICALLY INDUCING LONGEVITY” (RHEINISCHE FRIEDRICH-WILHELMS UNIVERSITAT, priority 2006, published 2010)
